Reference: patent US7365057B2, “Modified 2′ and 3′-nucleoside prodrugs for treating Flavivridae infections” (priority 2002, dated 2008)

Key:
HCV = settings: ribavirin alone; Davis, Gastroenterology 2000; cited from earlier work
[1] = test system: Vero 76, African green monkey kidney cells

Compound | effect on serum levels of HCV-RNA (HCV) | patients in whom serum amino transferase levels are reduced to normal (HCV) | CC50 (MT-4) | CC50 [1] | CC50 (BHK)
NC(=O)c1ncn([C@@H]2O[C@H](CO)[C@@H](O)[C@H]2O)n1 [Ribavirin, 1-β-D-ribofuranosyl-1-1,2,4-triazole-3-carboxamide] | does not lower serum levels of HCV-RNA | 40% |  |  | 
β-D-2′-C-methyl-7-methyl-6-phenyl-3,3a,5,8a-tetrahydro-1,3,4,5,7a-penta-aza-s-indacen-8-one [Compound F] |  |  | > 100 µM | > 100 µM | > 100 µM
